# Source: patent US20230133087A1, “ACTIVE COMPOUND COMBINATIONS AND FUNGICIDE COMPOSITIONS COMPRISING THOSE” (priority 2020, published 2023)
# Where “and” joins values, the source holds several entries; their conditions need not be identical. Identical values can stand only once.
# Tests used:
# Assay type in all cases: cell-based
# Cordana musae = experiment: In vitro-test with fungal microorganisms: Cordana musae
# Description: (§1) The degree of efficacy, expressed in % is denoted. 0% means an efficacy which corresponds to that of the control while an efficacy of 100% means that no disease is observed.
# (§2) Wells of 96-well microtiter plates are filled with 30 μl of a preparation of test compound or compound combination in methanol+emulsifier alkylaryl-polyglycol-ether. Thereafter, the solvent is evaporated in a hood. At the next step, into each well 200 μl of liquid growth medium is given, that has been amended with an appropriate concentration of spores or mycelium suspension of the test fungus.
# (§3) With the aid of a photometer the extinction in all wells is measured at the wavelength of 600 nm.
# (§4) The microtiter plates are incubated for 3 to 7 days at 20° C. and 85% relative humidity. After the incubation inhibition of growth is determined photometrically. Efficacy is calculated in relation to the untreated control, 0% efficacy means fungal growth as high as in untreated control while 100% efficacy means no fungal growth is measured.
# Colletotrichum coccodes = experiment: In vitro-test with fungal microorganisms: Colletotrichum coccodes
# Description: as §1, §2, §3, §4
# Diaporthe citri = experiment: In vitro-test with fungal microorganisms: Diaporthe citri
# Description: as §1, §2, §3, §4
# Parastasonospora nodorum = experiment: In vitro-test with fungal microorganisms: Parastasonospora nodorum
# Description: as §1, §2, §3, §4
# Alternaria alternata = experiment: In vitro-test with fungal microorganisms (microtiter plate, photometric growth inhibition): Alternaria alternata
# Description: as §1, §2, §3, §4
# Botrytis cinerea = experiment: In vitro-test with fungal microorganisms: Botrytis cinerea
# Description: as §1, §2, §3, §4
# Cercospora beticola = experiment: In vitro-test with fungal microorganisms: Cercospora beticola
# Description: as §1, §2, §3, §4
# Fusarium culmorum = experiment: In vitro-test with fungal microorganisms: Fusarium culmorum
# Description: as §1, §2, §3, §4
compound,measurement,setting,value
"O=C(NC1CCC1c1ccc(Cl)cc1Cl)c1cccnc1C(F)(F)F (stereo in doubt) [(2.060) cyclobutrifluram, cyclobutrifluram]",efficacy,Cordana musae; 0.04 ppm,3%
same,efficacy,Cordana musae; 0.2 ppm,4%
same,efficacy,Cordana musae; 1 ppm,6%
same,efficacy,Colletotrichum coccodes; 0.04 ppm,5%
same,efficacy,Colletotrichum coccodes; 0.2 ppm,8%
O=C(NC1CCC1c1ccc(Cl)cc1Cl)c1cccnc1C(F)(F)F (stereo in doubt) [cyclobutrifluram],efficacy,"Diaporthe citri; Table F1, 0.04 ppm",0%
same,efficacy,"Parastasonospora nodorum; Table H2, 0.04 ppm",27%
"O=C(NCCc1ncc(C(F)(F)F)cc1Cl)c1ccccc1C(F)(F)F [(2.005) fluopyram, fluopyram]",efficacy,Alternaria alternata; 0.16 ppm,72%
same,efficacy,Alternaria alternata; 0.8 ppm,73%
same,efficacy,Alternaria alternata; 4 ppm,95%
same,efficacy,Cordana musae; 0.16 ppm,0%
same,efficacy,Cordana musae; 0.8 ppm,6% and 0%
same,efficacy,Colletotrichum coccodes; 0.16 ppm,10% and 0%
same,efficacy,Colletotrichum coccodes; 0.8 ppm,0%
same,efficacy,Botrytis cinerea; 0.8 ppm,0%
"Cc1nn(C)c(F)c1C(=O)Nc1ccccc1C(C)CC(C)C (stereo not shown) [(2.017) penflufen, penflufen]",efficacy,Alternaria alternata; 0.2 ppm,14%
same,efficacy,Colletotrichum coccodes; 0.04 ppm,5%
same,efficacy,Colletotrichum coccodes; 0.2 ppm,0%
same,efficacy,Botrytis cinerea; 1 ppm,35%
same,efficacy,Botrytis cinerea; 5 ppm,7%
"CON(C(=O)c1cn(C)nc1C(F)F)C(C)Cc1c(Cl)cc(Cl)cc1Cl (stereo not shown) [(2.019) pydiflumetofen, pydiflumetofen]",efficacy,Colletotrichum coccodes; 0.008 ppm,8% and 9%
same,efficacy,Colletotrichum coccodes; 0.2 ppm,19%
same,efficacy,Botrytis cinerea; 0.04 ppm,71%
same,efficacy,Botrytis cinerea; 0.2 ppm,82%
same,efficacy,Botrytis cinerea; 1 ppm,92%
"CC(C)c1ccc(Cl)cc1CN(C(=O)c1c(C(F)F)nn(C)c1F)C1CC1 [(2.038) isoflucypram, isoflucypram]",efficacy,Alternaria alternata; 0.008 ppm,51%
same,efficacy,Alternaria alternata; 0.2 ppm,69%
same,efficacy,Cordana musae; 0.008 ppm,8% and 2%
same,efficacy,Cordana musae; 0.04 ppm,0%
same,efficacy,Colletotrichum coccodes; 0.008 ppm,23%
same,efficacy,Colletotrichum coccodes; 0.04 ppm,9% and 5%
same,efficacy,Colletotrichum coccodes; 0.2 ppm,14%
same,efficacy,Cercospora beticola; 0.008 ppm,20%
same,efficacy,Cercospora beticola; 0.04 ppm,30%
same,efficacy,Cercospora beticola; 0.2 ppm,0%
same,efficacy,Cercospora beticola; 1 ppm,88%
"CO/N=C(/C1=NOCCO1)c1ccccc1Oc1ncnc(Oc2ccccc2Cl)c1F [(3.012) fluoxastrobin, fluoxastrobin]",efficacy,Alternaria alternata; 2 ppm,100%
same,efficacy,Cordana musae; 2 ppm,77%
same,efficacy,Cordana musae; 10 ppm,87%
same,efficacy,Colletotrichum coccodes; 0.008 ppm,0%
same,efficacy,Colletotrichum coccodes; 0.08 ppm,30% and 15%
same,efficacy,Colletotrichum coccodes; 0.4 ppm,49% and 50% and 51%
same,efficacy,Colletotrichum coccodes; 2 ppm,88% and 87% and 82% and 83%
same,efficacy,Colletotrichum coccodes; 10 ppm,94% and 95% and 96%
same,efficacy,Cercospora beticola; 2 ppm,94%
same,efficacy,Botrytis cinerea; 0.08 ppm,15% and 12%
same,efficacy,Botrytis cinerea; 2 ppm,59% and 52%
same,efficacy,Botrytis cinerea; 10 ppm,86% and 83%
"CON=C(C(=O)OC)c1ccccc1CON=C(C)c1cccc(C(F)(F)F)c1 [(3.020) trifloxystrobin, trifloxystrobin]",efficacy,Alternaria alternata; 0.008 ppm,39%
same,efficacy,Alternaria alternata; 1 ppm,100%
same,efficacy,Cordana musae; 0.008 ppm,29%
same,efficacy,Cordana musae; 0.04 ppm,82%
same,efficacy,Cordana musae; 0.2 ppm,83% and 82%
same,efficacy,Cordana musae; 1 ppm,89% and 88% and 86% and 85%
same,efficacy,Colletotrichum coccodes; 0.04 ppm,58% and 62% and 61%
same,efficacy,Colletotrichum coccodes; 0.2 ppm,84% and 88% and 82%
same,efficacy,Colletotrichum coccodes; 1 ppm,96% and 97% and 92%
same,efficacy,Botrytis cinerea; 0.008 ppm,0%
same,efficacy,Botrytis cinerea; 0.04 ppm,9%
same,efficacy,Botrytis cinerea; 0.2 ppm,25%
same,efficacy,Botrytis cinerea; 1 ppm,81%
"Cc1cccc(-n2nnn(C)c2=O)c1COc1ccn(-c2ccc(Cl)cc2)n1 [(3.030) metyltetraprole, metyltetraprole]",efficacy,Alternaria alternata; 2 ppm,92% and 99%
same,efficacy,Alternaria alternata; 10 ppm,99%
same,efficacy,Cordana musae; 0.08 ppm,65%
same,efficacy,Cordana musae; 0.4 ppm,77%
same,efficacy,Cordana musae; 10 ppm,96%
same,efficacy,Colletotrichum coccodes; 0.008 ppm,36%
same,efficacy,Colletotrichum coccodes; 0.4 ppm,75% and 73% and 72%
same,efficacy,Colletotrichum coccodes; 2 ppm,92% and 94% and 82%
same,efficacy,Colletotrichum coccodes; 10 ppm,100%
same,efficacy,Botrytis cinerea; 0.08 ppm,18%
same,efficacy,Botrytis cinerea; 0.4 ppm,30% and 25%
same,efficacy,Botrytis cinerea; 10 ppm,84%
"COC(=O)C(O)(Cn1cncn1)c1ccc(Oc2ccc(Cl)cc2)cc1Cl (stereo not shown) [(I-1), Methyl 2-[2-chloro-4-(4-chlorophenoxy)phenyl]-2-hydroxy-3-(1,2,4-triazol-1-yl)propanoate]",efficacy,Alternaria alternata; 2.5 ppm,92%
same,efficacy,"Diaporthe citri; Table F1, 2.5 ppm",99%
same,efficacy,"Diaporthe citri; Table F2, 0.02 ppm",2%
same,efficacy,"Diaporthe citri; Table F2, 0.5 ppm",92%
same,efficacy,"Diaporthe citri; Table F2, 2.5 ppm",98%
same,efficacy,Fusarium culmorum; 0.02 ppm,9%
same,efficacy,Fusarium culmorum; 0.1 ppm,6% and 0%
same,efficacy,Fusarium culmorum; 0.5 ppm,0%
same,efficacy,Colletotrichum coccodes; 0.02 ppm,0% and 4%
same,efficacy,"Parastasonospora nodorum; Table H1, 0.02 ppm",0%
same,efficacy,"Parastasonospora nodorum; Table H1, 2.5 ppm",99%
same,efficacy,"Parastasonospora nodorum; Table H2, 0.02 ppm",2% and 0% and 3%
same,efficacy,"Parastasonospora nodorum; Table H2, 2.5 ppm",96%
same,efficacy,"Parastasonospora nodorum; Table H3, 0.02 ppm",9%
same,efficacy,Cercospora beticola; 0.02 ppm,50%
same,efficacy,Cercospora beticola; 0.1 ppm,36%
same,efficacy,Cercospora beticola; 0.5 ppm,74%
same,efficacy,Cercospora beticola; 2.5 ppm,99%
same,efficacy,Botrytis cinerea; 2.5 ppm,62%
same,efficacy,"Botrytis cinerea; 2.5 ppm, with penflufen 1 ppm, metyltetraprole 0.08 ppm",63%
O=C(NCCc1ncc(C(F)(F)F)cc1Cl)c1ccccc1C(F)(F)F [fluopyram],efficacy,"Diaporthe citri; Table F1, 0.16 ppm",0%
same,efficacy,Fusarium culmorum; 0.16 ppm,9%
same,efficacy,Fusarium culmorum; 0.8 ppm,18%
same,efficacy,"Parastasonospora nodorum; Table H1, 0.16 ppm",14%
same,efficacy,"Parastasonospora nodorum; Table H1, 20 ppm",100%
CO/N=C(/C1=NOCCO1)c1ccccc1Oc1ncnc(Oc2ccccc2Cl)c1F [fluoxastrobin],efficacy,"Diaporthe citri; Table F1, 0.4 ppm",89%
same,efficacy,"Diaporthe citri; Table F1, 2 ppm",98%
same,efficacy,"Diaporthe citri; Table F2, 2 ppm",66%
same,efficacy,Cordana musae; 0.4 ppm,64%
same,efficacy,Cordana musae; 2 ppm,78%
same,efficacy,Cordana musae; 10 ppm,78%
same,efficacy,Fusarium culmorum; 0.08 ppm,7% and 0%
same,efficacy,Fusarium culmorum; 0.4 ppm,17%
same,efficacy,Fusarium culmorum; 10 ppm,56%
same,efficacy,"Parastasonospora nodorum; Table H1, 0.4 ppm",77%
same,efficacy,"Parastasonospora nodorum; Table H1, 2 ppm",87%
same,efficacy,"Parastasonospora nodorum; Table H2, 0.08 ppm",60%
same,efficacy,"Parastasonospora nodorum; Table H2, 0.4 ppm",65%
same,efficacy,"Parastasonospora nodorum; Table H2, 2 ppm",85%
same,efficacy,"Parastasonospora nodorum; Table H3, 0.08 ppm",57%
same,efficacy,"Parastasonospora nodorum; Table H3, 2 ppm",85%
same,efficacy,"Parastasonospora nodorum; Table H3, 10 ppm",82%
C[C@@H]1CC(C)(C)c2cccc(NC(=O)c3cn(C)nc3C(F)F)c21 [inpyrfluxam],efficacy,Cordana musae; 0.008 ppm,16%
same,efficacy,Cordana musae; 0.04 ppm,0%
same,efficacy,Cordana musae; 0.2 ppm,6%
same,efficacy,"Parastasonospora nodorum; Table H3, 0.008 ppm",20%
CC(C)c1ccc(Cl)cc1CN(C(=O)c1c(C(F)F)nn(C)c1F)C1CC1 [isoflucypram],efficacy,Fusarium culmorum; 0.04 ppm,0%
same,efficacy,Fusarium culmorum; 0.2 ppm,11%
Cc1cccc(-n2nnn(C)c2=O)c1COc1ccn(-c2ccc(Cl)cc2)n1 [metyltetraprole],efficacy,"Diaporthe citri; Table F1, 0.4 ppm",91%
same,efficacy,"Diaporthe citri; Table F1, 2 ppm",99%
same,efficacy,"Diaporthe citri; Table F1, 10 ppm",99%
same,efficacy,"Diaporthe citri; Table F2, 0.4 ppm",89%
same,efficacy,"Diaporthe citri; Table F2, 2 ppm",99%
same,efficacy,Cordana musae; 0.08 ppm,58%
same,efficacy,Cordana musae; 0.4 ppm,73%
same,efficacy,Cordana musae; 2 ppm,82%
same,efficacy,"Parastasonospora nodorum; Table H2, 0.08 ppm",80% and 76%
same,efficacy,"Parastasonospora nodorum; Table H2, 0.4 ppm",92%
same,efficacy,"Parastasonospora nodorum; Table H2, 2 ppm",100%
same,efficacy,"Parastasonospora nodorum; Table H2, 10 ppm",100%
Cc1nn(C)c(F)c1C(=O)Nc1ccccc1C(C)CC(C)C (stereo not shown) [penflufen],efficacy,"Diaporthe citri; Table F2, 0.04 ppm",0%
same,efficacy,"Diaporthe citri; Table F2, 0.2 ppm",0%
same,efficacy,Cordana musae; 0.2 ppm,0%
same,efficacy,Cordana musae; 1 ppm,0%
same,efficacy,"Parastasonospora nodorum; Table H2, 5 ppm",22%
CON(C(=O)c1cn(C)nc1C(F)F)C(C)Cc1c(Cl)cc(Cl)cc1Cl (stereo not shown) [pydiflumetofen],efficacy,"Diaporthe citri; Table F2, 0.04 ppm",0%
same,efficacy,"Diaporthe citri; Table F2, 0.2 ppm",22%
same,efficacy,"Diaporthe citri; Table F2, 1 ppm",33%
same,efficacy,Cordana musae; 0.008 ppm,0%
same,efficacy,Cordana musae; 0.04 ppm,9%
CON=C(C(=O)OC)c1ccccc1CON=C(C)c1cccc(C(F)(F)F)c1 [trifloxystrobin],efficacy,Cordana musae; 0.2 ppm,73%
same,efficacy,Cordana musae; 1 ppm,84%
same,efficacy,Fusarium culmorum; 0.008 ppm,14%
same,efficacy,Fusarium culmorum; 0.04 ppm,18%
same,efficacy,Fusarium culmorum; 0.2 ppm,41%
same,efficacy,Fusarium culmorum; 1 ppm,68%
same,efficacy,"Parastasonospora nodorum; Table H1, 0.04 ppm",65%
same,efficacy,"Parastasonospora nodorum; Table H1, 0.2 ppm",85%
same,efficacy,"Parastasonospora nodorum; Table H2, 0.008 ppm",44%
same,efficacy,"Parastasonospora nodorum; Table H2, 0.04 ppm",79%
inpyrfluxam [(2.027) inpyrfluxam],efficacy,Alternaria alternata; 0.008 ppm,0%
same,efficacy,Alternaria alternata; 0.04 ppm,41% and 27%
same,efficacy,Alternaria alternata; 1 ppm,86%
same,efficacy,Cordana musae; 0.008 ppm,16%
same,efficacy,Cordana musae; 0.04 ppm,0%
same,efficacy,Cordana musae; 0.2 ppm,6%
same,efficacy,Colletotrichum coccodes; 0.008 ppm,0%
same,efficacy,Colletotrichum coccodes; 0.08 ppm,24%
same,efficacy,Colletotrichum coccodes; 0.2 ppm,0%
same,efficacy,Colletotrichum coccodes; 0.4 ppm,23%
same,efficacy,Botrytis cinerea; 0.008 ppm,0%
same,efficacy,Botrytis cinerea; 0.04 ppm,37%
same,efficacy,Botrytis cinerea; 0.08 ppm,0%
